We go through 8 molecules from patent publication US4604234A, “Protein having cell growth stimulating action, composition thereof and method for producing the same” (priority 1983, dated 1986).

Structures are written as SMILES. Like-named read-outs stand apart in the source and are kept apart here.

Data set [1] deals with BHK-21 cells. Nature of the data set: Inhibitory effects of steroids on BHK-21 cells. It is filed as cell-based, hamster. The settings on record: for activity at 0.5 µg/mL / activity at 1 µg/mL / activity at 5 µg/mL / activity at 25 µg/mL / activity at 50 µg/mL: Mesocricetus auratus, read-out: % of control cell numbers.
The test system of data set [2] is BHK-21 cells. Nature of the data set: Effects of WHS on BHK-21 cells in the presence of steroids. Particulars: steroid 50 μg/ml alone. It is filed as cell-based, hamster.
In data set [3] the test system is human cutaneous fibroblasts. Particulars: cited from earlier work; for growth inhibition of incubated human cutaneous fibroblasts: listed in descending order of inhibition.
A further data set relates to mouse fibroblasts. The settings on record: with protoplasmic vacuolation; cited from earlier work.
Where [4] appears, read: BHK-21, 48 h, 0.5 μg/ml, 2 days.
[5] abbreviates: BHK-21, 48 h, 1.0 μg/ml, 2 days.
Where [6] appears, read: BHK-21, 48 h, 5.0 μg/ml, 2 days.
[7] abbreviates: BHK-21, 48 h, 25.0 μg/ml, 2 days.
Where [8] appears, read: BHK-21, 48 h, 50.0 μg/ml, 2 days.
Where [9] appears, read: BHK-21, 96 h, 0.5 μg/ml, 4 days.
The mark [10] stands for this setting: BHK-21, 96 h, 1.0 μg/ml, 4 days.
[11] abbreviates: BHK-21, 96 h, 5.0 μg/ml, 4 days.
[12] abbreviates: BHK-21, 96 h, 25.0 μg/ml, 4 days.
[13] abbreviates: BHK-21, 96 h, 50.0 μg/ml, 4 days.
The mark [14] stands for this setting: BHK-21, 144 h, 0.5 μg/ml, 6 days.
Setting [15] is: BHK-21, 144 h, 1.0 μg/ml, 6 days.
[16] abbreviates: BHK-21, 144 h, 5.0 μg/ml, 6 days.
The mark [17] stands for this setting: BHK-21, 144 h, 25.0 μg/ml, 6 days.
The mark [18] stands for this setting: BHK-21, 144 h, 50.0 μg/ml, 6 days.

For `C[C@]12CCC(=O)C=C1CC[C@@H]1[C@@H]2[C@@H](O)C[C@@]2(C)[C@H]1CC[C@]2(O)C(=O)CO` [Hydrocortisone, hydrocortisone], the cell numbers in the data set with BHK-21 cells [1] (0.5 μg/ml, 2 days) is recorded as 13.0 × 10^5 cells/dish; with BHK-21 cells [1] (0.5 μg/ml, 4 days) it was 24.0 × 10^5 cells/dish; in the data set with BHK-21 cells [1] (0.5 μg/ml, 6 days) it was 25.6 × 10^5 cells/dish; in the data set on BHK-21 cells [1] (1.0 μg/ml, 2 days), 12.5 × 10^5 cells/dish; in the data set with BHK-21 cells [1] (1.0 μg/ml, 4 days), 23.8 × 10^5 cells/dish; in the data set with BHK-21 cells [1] (1.0 μg/ml, 6 days), 25.1 × 10^5 cells/dish. The cell numbers is listed as 12.0 × 10^5 cells/dish with BHK-21 cells [1] (5.0 μg/ml, 2 days); 21.9 × 10^5 cells/dish in the data set with BHK-21 cells [1] (5.0 μg/ml, 4 days); 25.2 × 10^5 cells/dish in the data set with BHK-21 cells [1] (5.0 μg/ml, 6 days); 9.3 × 10^5 cells/dish in the data set on BHK-21 cells [1] (25.0 μg/ml, 2 days); 17.1 × 10^5 cells/dish with BHK-21 cells [1] (25.0 μg/ml, 4 days); 22.6 × 10^5 cells/dish in the data set on BHK-21 cells [1] (25.0 μg/ml, 6 days). The cell numbers is given as 8.2 × 10^5 cells/dish with BHK-21 cells [1] (50.0 μg/ml, 2 days); 10.8 × 10^5 cells/dish in the data set with BHK-21 cells [1] (50.0 μg/ml, 4 days); 10.0 × 10^5 cells/dish with BHK-21 cells [1] (50.0 μg/ml, 6 days); 8.2 × 10^5 cells/dish in the data set on BHK-21 cells [2] (2nd day); 12.6 × 10^5 cells/dish with BHK-21 cells [2] (4th day). The activity at 0.5 µg/mL with BHK-21 cells [1] (setting [4]) was 105%; with BHK-21 cells [1] (setting [9]) it was 92.7%; in the data set with BHK-21 cells [1] (setting [14]), 98.5%. The activity at 1 µg/mL in the data set on BHK-21 cells [1] (setting [5]) worked out at 101%; with BHK-21 cells [1] (setting [10]), 91.7%; in the data set on BHK-21 cells [1] (setting [15]), 96.5%. The activity at 5 µg/mL in the data set with BHK-21 cells [1] (setting [6]) was 96.8%; in the data set with BHK-21 cells [1] (setting [11]) it was 84.6%; with BHK-21 cells [1] (setting [16]), 96.9%. In addition, the activity at 25 µg/mL amounted to 75% in the data set with BHK-21 cells [1] (setting [7]), 66% with BHK-21 cells [1] (setting [12]) and 86.9% in the data set on BHK-21 cells [1] (setting [17]). Also, the activity at 50 µg/mL is 66.1% in the data set with BHK-21 cells [1] (setting [8]), 41.7% in the data set with BHK-21 cells [1] (setting [13]) and 40% with BHK-21 cells [1] (setting [18]). Also, the “growth inhibition of incubated human cutaneous fibroblasts” value (“growth inhibition” for short) in data set [3] was “inhibited”.
For `CCCCC(=O)O[C@]1(C(=O)CO)[C@@H](C)C[C@H]2[C@@H]3CCC4=CC(=O)C=C[C@]4(C)[C@@]3(F)[C@@H](O)C[C@@]21C` [betamethasone-17-valerate], the “growth inhibition” value in data set [3] is “inhibited”.
Consider `C[C@]12CCC(=O)C=C1CC[C@@H]1[C@@H]2[C@@H](O)C[C@@]2(C)[C@H]1CC[C@]2(O)C(=O)CO` [cortisol], for which, in the data set on mouse fibroblasts, the “growth of incubated mouse fibroblasts” value was “inhibited growth”.
Take `CCCC(=O)O[C@]1(C(=O)CO)CC[C@H]2[C@@H]3CCC4=CC(=O)CC[C@]4(C)[C@H]3[C@@H](O)C[C@@]21C` [hydrocortisone-butylate]: the “growth inhibition” value in data set [3] is given as “inhibited”.
`C[C@]12C=CC(=O)C=C1CC[C@@H]1[C@@H]2[C@@H](O)C[C@@]2(C)[C@H]1CC[C@]2(O)C(=O)CO` [Prednisolone, prednisolone]: the cell numbers in the data set on BHK-21 cells [1] (0.5 μg/ml, 2 days) is 1.20 × 10^5 cells/dish; in the data set on BHK-21 cells [1] (0.5 μg/ml, 4 days), 2.43 × 10^5 cells/dish; in the data set with BHK-21 cells [1] (0.5 μg/ml, 6 days) it was 2.51 × 10^5 cells/dish; with BHK-21 cells [1] (1.0 μg/ml, 2 days), 1.20 × 10^5 cells/dish; in the data set with BHK-21 cells [1] (1.0 μg/ml, 4 days), 2.45 × 10^5 cells/dish; in the data set on BHK-21 cells [1] (1.0 μg/ml, 6 days) it was 2.50 × 10^5 cells/dish. Besides, the cell numbers in the data set with BHK-21 cells [1] (5.0 μg/ml, 2 days) is given as 1.09 × 10^5 cells/dish; with BHK-21 cells [1] (5.0 μg/ml, 4 days) it was 2.33 × 10^5 cells/dish; in the data set with BHK-21 cells [1] (5.0 μg/ml, 6 days), 2.48 × 10^5 cells/dish; with BHK-21 cells [1] (25.0 μg/ml, 2 days), 0.85 × 10^5 cells/dish; with BHK-21 cells [1] (25.0 μg/ml, 4 days), 1.49 × 10^5 cells/dish; in the data set on BHK-21 cells [1] (25.0 μg/ml, 6 days), 1.91 × 10^5 cells/dish. For the same molecule, the cell numbers in the data set with BHK-21 cells [1] (50.0 μg/ml, 2 days) was 0.73 × 10^5 cells/dish; with BHK-21 cells [1] (50.0 μg/ml, 4 days), 1.01 × 10^5 cells/dish; in the data set on BHK-21 cells [1] (50.0 μg/ml, 6 days) it was 0.98 × 10^5 cells/dish; in the data set on BHK-21 cells [2] (2nd day), 0.78 × 10^5 cells/dish; with BHK-21 cells [2] (4th day), 0.94 × 10^5 cells/dish. The activity at 0.5 µg/mL in the data set on BHK-21 cells [1] (setting [4]) was found to be 91.6%; in the data set with BHK-21 cells [1] (setting [9]), 89.3%; in the data set with BHK-21 cells [1] (setting [14]) it was 94.7%. Also, the activity at 1 µg/mL was 91.6% in the data set with BHK-21 cells [1] (setting [5]), 90.1% in the data set with BHK-21 cells [1] (setting [10]) and 94.3% in the data set with BHK-21 cells [1] (setting [15]). Further, the activity at 5 µg/mL in the data set with BHK-21 cells [1] (setting [6]) was 83.2%; with BHK-21 cells [1] (setting [11]), 85.7%; in the data set with BHK-21 cells [1] (setting [16]), 93.6%. The values for the activity at 25 µg/mL in the data set on BHK-21 cells [1] (setting [7]), in the data set with BHK-21 cells [1] (setting [12]) and in the data set with BHK-21 cells [1] (setting [17]) were 64.9%, 54.8% and 72.1%, respectively. Moreover, the activity at 50 µg/mL with BHK-21 cells [1] (setting [8]) came to 55.7%; in the data set on BHK-21 cells [1] (setting [13]) it was 37.1%; with BHK-21 cells [1] (setting [18]), 37%.
In the case of `C[C@@H]1C[C@H]2[C@@H]3CCC4=CC(=O)C=C[C@]4(C)[C@@]3(F)[C@@H](O)C[C@]2(C)[C@@]1(O)C(=O)CO` [Dexamethasone, dexamethasone], the cell numbers in the data set with BHK-21 cells [1] (0.5 μg/ml, 2 days) was 0.92 × 10^5 cells/dish; with BHK-21 cells [1] (0.5 μg/ml, 4 days) it was 2.32 × 10^5 cells/dish; in the data set with BHK-21 cells [1] (0.5 μg/ml, 6 days), 2.51 × 10^5 cells/dish; in the data set on BHK-21 cells [1] (1.0 μg/ml, 2 days) it was 0.87 × 10^5 cells/dish; in the data set on BHK-21 cells [1] (1.0 μg/ml, 4 days), 2.31 × 10^5 cells/dish; with BHK-21 cells [1] (1.0 μg/ml, 6 days), 2.54 × 10^5 cells/dish. For the same molecule, the cell numbers with BHK-21 cells [1] (5.0 μg/ml, 2 days) is recorded as 0.84 × 10^5 cells/dish; in the data set on BHK-21 cells [1] (5.0 μg/ml, 4 days), 2.22 × 10^5 cells/dish; in the data set with BHK-21 cells [1] (5.0 μg/ml, 6 days), 2.57 × 10^5 cells/dish; in the data set with BHK-21 cells [1] (25.0 μg/ml, 2 days) it was 0.71 × 10^5 cells/dish; with BHK-21 cells [1] (25.0 μg/ml, 4 days), 1.71 × 10^5 cells/dish; in the data set on BHK-21 cells [1] (25.0 μg/ml, 6 days), 2.33 × 10^5 cells/dish. Moreover, the cell numbers with BHK-21 cells [1] (50.0 μg/ml, 2 days) is on record as 0.62 × 10^5 cells/dish; with BHK-21 cells [1] (50.0 μg/ml, 4 days) it was 1.24 × 10^5 cells/dish; with BHK-21 cells [1] (50.0 μg/ml, 6 days), 1.84 × 10^5 cells/dish; in the data set on BHK-21 cells [2] (2nd day), 0.87 × 10^5 cells/dish; in the data set with BHK-21 cells [2] (4th day), 1.28 × 10^5 cells/dish. Moreover, the activity at 0.5 µg/mL was 94.8% in the data set on BHK-21 cells [1] (setting [4]), 87.2% in the data set on BHK-21 cells [1] (setting [9]) and 97.3% in the data set on BHK-21 cells [1] (setting [14]). Besides, the results for the activity at 1 µg/mL in the data set on BHK-21 cells [1] (setting [5]), with BHK-21 cells [1] (setting [10]) and with BHK-21 cells [1] (setting [15]) were 89.7%, 86.8% and 98.4%, respectively. For the same molecule, the activity at 5 µg/mL came to 86.6% in the data set on BHK-21 cells [1] (setting [6]), 83.5% in the data set with BHK-21 cells [1] (setting [11]) and 99.6% with BHK-21 cells [1] (setting [16]). Also, the activity at 25 µg/mL with BHK-21 cells [1] (setting [7]) was 73.2%; with BHK-21 cells [1] (setting [12]), 64.3%; in the data set with BHK-21 cells [1] (setting [17]), 90.3%. The activity at 50 µg/mL came to 63.9% with BHK-21 cells [1] (setting [8]), 46.6% in the data set on BHK-21 cells [1] (setting [13]) and 71.3% with BHK-21 cells [1] (setting [18]).
As for `CCC(=O)O[C@]1(C(=O)CCl)[C@@H](C)C[C@H]2[C@@H]3CCC4=CC(=O)C=C[C@]4(C)[C@@]3(F)[C@@H](O)C[C@@]21C` [clobetasol-17-propionate], in data set [3] (25 μg/ml), the “denaturation of human fibroblastic nuclei and protoplasms” value is “caused human fibroblastic nuclei and protoplasms to denature”. The “growth inhibition” value in data set [3] is given as “inhibited”.
`CCC(=O)OCC(=O)[C@@]1(OC(=O)CC)[C@@H](C)C[C@H]2[C@@H]3CCC4=CC(=O)C=C[C@]4(C)[C@@]3(F)[C@@H](O)C[C@@]21C` [betamethasonedipropionate]: in data set [3], the “growth inhibition” value is recorded as “inhibited”.
